Several values for one entry are separate records, joined by “and”; a condition that tells them apart may be missing. Identical values can stand only once. Counter-ions that a name gives are not always drawn.
Test system: 5-HIAA release in the rat prefrontal cortex
Test: Microdialysis: 5-HIAA release in prefrontal cortex after I.P. administration
Assay type: in vivo
Conditions: for 5-HIAA release (% of basal levels) measured in dialysates, MEAN / 5-HIAA (% of respective basal) MEAN: n = 8; for 5-HIAA release (% of basal levels) measured in dialysates: individual animals, hydrochloride, 3 mg/kg; for 5-HIAA (% of respective basal) MEAN: SON-117 group 0.1 mg/kg I.P.
Experimental: The aim of the study was to evaluate, using microdialysis, the effects of an intraperitoneal (I.P.) administration in rats of three different doses of SON-117 on dopamine and its metabolites, serotonin and its metabolite (5-HIAA), and norepinephrine levels in prefrontal cortex.
Thirty-two adult male Wistar rats were used for the whole study (4 groups of eight animals planned for the study, Table 1).
Surgery was performed on rats weighing about 300 g at the beginning of the experiments. Rats were anaesthetized with Ketamine (50 mg/kg) & Xylazine (15 mg/kg) by intramuscular administration. The animals were placed in a stereotaxic apparatus in the flat-skull position at a constant setting of −3.3 mm between ear bars and the incisor bar. The animals were treated with a local anesthesic (xylocaine 1%, Astra Zeneca) and an analgesic (Temgesic, from Schering Plough, 0.05 mg/kg, s.c.). A rostrocaudal midline incision was made with a lancet to expose the dorsal skull surface. The “stereotaxic zero” was defined by the Bregma in accordance with Paxinos and Watson's atlas (1986). A hole was drilled in the skull with a drill and the meninges were pierced with a sterile needle to implant a CMA12 guide cannula which later received the dialysis probe.
Coordinates used for implanting guide cannula in prefrontal cortex from Bregma were anteroposterior 3.7 mm, mediolateral 0.8 mm, and dorsoventral −2 mm (top of the probe was at −5 mm). The guide cannula was fixed to the skull with two stainless steel screws (1.88 mm outside diameter) anchored. An application of dental cement was added. A plastic collar allowed each animal to be tethered to a Swivel assembly of the CMA 120 awake animal system. Following surgery, rats were kept in individual cages and allowed to recover for a minimum of 3-5 days before the experimentation. The rats were handled and put in plastic bowl for 10 min at least every day to habituate the animals to their new environment for the dialysis. An I.P. administration with saline was also performed every day.
Dialysis probes (CMA12/3 mm, membrane, 20 kD cut-off, Carnegie Medicine, Stockholm, Sweden), were carefully washed before inserting into the guide cannula. The wash was performed with the artificial cerebrospinal fluid (aCSF) medium (NaCl 147 mM, KCl 2.7 mM, CaCl2 1.2 mM, MgCl2 0.85 mM) at room temperature. The dialysis system was then equilibrated at 20° C. at a perfusion rate of 1 μl/min with a Carnegie pump (CMA100). All catheters (FEP tubing, internal volume of 1.2 μl/10 cm, and tubing adaptors) used for microdialysis were treated in the same conditions.
The probes duly prepared were inserted into the guide cannula and the CMA120 Swivel assembly secured to the animal using a plastic collar. Flow through the dialysis probe with aCSF was maintained at a rate of 1 μl/min during the whole experimentation. The first four fractions (corresponding to 2 hours) were discarded to avoid the effects of parenchymal disturbance and to ensure that an approximate steady-state level was reached. Fractions were then collected over a period of 8.5 h during which time the animals remained quiet. The dialysates were automatically collected with an autosampler (microfraction collector CMA 140, Carnegie Medicin) and stored at −80° C. until analysis. […] Perfusion was then maintained for 7 hours with aCSF. The dialysates (30 μl) were collected into 300 μl vials, transferred into dry ice and then kept frozen (−80° C.) until analysis. Frozen samples were shipped to a partner for analysis. At the end of the microdialysis study, a PBS with colored ink was perfused through the probe in order to visualize the dialyzed area.
Catecholamine assay: Concentrations of dopamine, DOPAC, HVA, 5-HIAA, 5-HT, and norepinephrin were determined for each sample by HPLC coupled with electrochemical detection.

[1] = SON-117 3 mg/kg IP, T1 h 30-T2 h
[2] = SON-117 3 mg/kg IP, T1 h-T1 h 30
[3] = SON-117 3 mg/kg IP, T2 h 30-T3 h
[4] = SON-117 3 mg/kg IP, T2 h-T2 h 30
[5] = SON-117 3 mg/kg IP, T3 h 30-T4 h
[6] = SON-117 3 mg/kg IP, T3 h-T3 h 30
[7] = SON-117 3 mg/kg IP, T4 h 30-T5 h
[8] = SON-117 3 mg/kg IP, T4 h-T4 h 30
[9] = SON-117 3 mg/kg IP, T5 h 30-T6 h
[10] = SON-117 3 mg/kg IP, T5 h-T5 h 30
[11] = SON-117 3 mg/kg IP, T6 h 30-T7 h
[12] = SON-117 3 mg/kg IP, T6 h-T6 h 30

Cc1nnc(-c2cc3c(OC[C@@H](O)CN4CCC(c5ccc(Cl)c(Cl)c5)CC4)cccc3o2)o1 [SON-117, (S)-1-(4-(3,4-dichlorophenyl)piperidino)-3-(2-(5-methyl-1,3,4-oxadiazol-2-yl)benzo(b)furan-4-yloxy)-2-propanol hydrochloride]
5-HIAA release (% of basal levels) measured in dialysates, MEAN (SON-117 3 mg/kg IP, T0-T30 min): 100.01 % of basal levels
5-HIAA release (% of basal levels) measured in dialysates, MEAN (SON-117 3 mg/kg IP, T30-T1 h): 103.84 % of basal levels
5-HIAA release (% of basal levels) measured in dialysates (SON-117 3 mg/kg IP, T30-T1 h): 107.55 % of basal levels and 89.33 % of basal levels and 88.65 % of basal levels and 110.35 % of basal levels and 117.87 % of basal levels and 100.51 % of basal levels and 111.18 % of basal levels and 105.33 % of basal levels
5-HIAA release (% of basal levels) measured in dialysates, MEAN [1]: 88.78 % of basal levels
5-HIAA release (% of basal levels) measured in dialysates [1]: 94.24 % of basal levels and 92.41 % of basal levels and 78.82 % of basal levels and 101.67 % of basal levels and 75.13 % of basal levels and 85.33 % of basal levels and 91.45 % of basal levels and 91.21 % of basal levels
5-HIAA release (% of basal levels) measured in dialysates, MEAN [2]: 98.52 % of basal levels
5-HIAA release (% of basal levels) measured in dialysates [2]: 108.67 % of basal levels and 95.26 % of basal levels and 83.80 % of basal levels and 110.78 % of basal levels and 108.78 % of basal levels and 87.31 % of basal levels and 96.27 % of basal levels and 97.27 % of basal levels
5-HIAA release (% of basal levels) measured in dialysates, MEAN [3]: 84.99 % of basal levels
5-HIAA release (% of basal levels) measured in dialysates [3]: 110.25 % of basal levels and 75.66 % of basal levels and 71.07 % of basal levels and 93.25 % of basal levels and 73.18 % of basal levels and 83.94 % of basal levels and 86.24 % of basal levels and 86.32 % of basal levels
5-HIAA release (% of basal levels) measured in dialysates, MEAN [4]: 85.83 % of basal levels
5-HIAA release (% of basal levels) measured in dialysates [4]: 99.74 % of basal levels and 84.01 % of basal levels and 68.40 % of basal levels and 89.07 % of basal levels and 81.80 % of basal levels and 77.11 % of basal levels and 98.05 % of basal levels and 88.46 % of basal levels
5-HIAA release (% of basal levels) measured in dialysates, MEAN [5]: 82.25 % of basal levels
5-HIAA release (% of basal levels) measured in dialysates [5]: 103.09 % of basal levels and 75.36 % of basal levels and 71.57 % of basal levels and 91.17 % of basal levels and 72.73 % of basal levels and 78.31 % of basal levels and 82.53 % of basal levels and 83.23 % of basal levels
5-HIAA release (% of basal levels) measured in dialysates, MEAN [6]: 83.71 % of basal levels
5-HIAA release (% of basal levels) measured in dialysates [6]: 100.53 % of basal levels and 78.33 % of basal levels and 73.76 % of basal levels and 91.10 % of basal levels and 69.55 % of basal levels and 76.15 % of basal levels and 84.48 % of basal levels and 95.78 % of basal levels
5-HIAA release (% of basal levels) measured in dialysates, MEAN [7]: 75.41 % of basal levels
5-HIAA release (% of basal levels) measured in dialysates [7]: 90.13 % of basal levels and 63.71 % of basal levels and 68.51 % of basal levels and 75.52 % of basal levels and 72.02 % of basal levels and 83.31 % of basal levels and 83.67 % of basal levels and 66.44 % of basal levels
5-HIAA release (% of basal levels) measured in dialysates, MEAN [8]: 77.54 % of basal levels
5-HIAA release (% of basal levels) measured in dialysates [8]: 91.08 % of basal levels and 55.23 % of basal levels and 70.28 % of basal levels and 91.20 % of basal levels and 65.52 % of basal levels and 74.09 % of basal levels and 86.17 % of basal levels and 86.73 % of basal levels
5-HIAA release (% of basal levels) measured in dialysates, MEAN [9]: 71.99 % of basal levels
5-HIAA release (% of basal levels) measured in dialysates [9]: 82.54 % of basal levels and 68.32 % of basal levels and 64.58 % of basal levels and 71.77 % of basal levels and 60.86 % of basal levels and 67.49 % of basal levels and 79.74 % of basal levels and 80.63 % of basal levels
5-HIAA release (% of basal levels) measured in dialysates, MEAN [10]: 72.53 % of basal levels
5-HIAA release (% of basal levels) measured in dialysates [10]: 84.10 % of basal levels and 66.07 % of basal levels and 66.30 % of basal levels and 74.75 % of basal levels and 64.08 % of basal levels and 74.08 % of basal levels and 79.04 % of basal levels and 71.85 % of basal levels
5-HIAA release (% of basal levels) measured in dialysates, MEAN [11]: 73.41 % of basal levels
5-HIAA release (% of basal levels) measured in dialysates [11]: 83.14 % of basal levels and 67.51 % of basal levels and 58.65 % of basal levels and 82.71 % of basal levels and 65.19 % of basal levels
5-HIAA release (% of basal levels) measured in dialysates, MEAN [12]: 69.60 % of basal levels
5-HIAA release (% of basal levels) measured in dialysates [12]: 74.73 % of basal levels and 64.32 % of basal levels and 54.46 % of basal levels and 81.53 % of basal levels and 68.15 % of basal levels and 73.95 % of basal levels and 70.08 % of basal levels
5-HIAA release (% of basal levels) measured in dialysates, MEAN (SON-117 3 mg/kg IP, T-30 min-T0 (pre-administration)): 102.90 % of basal levels
5-HIAA release (% of basal levels) measured in dialysates, MEAN (SON-117 3 mg/kg IP, T-1 h 30-T-1 h (pre-administration)): 94.73 % of basal levels
5-HIAA release (% of basal levels) measured in dialysates, MEAN (SON-117 3 mg/kg IP, T-1 h-T-30 min (pre-administration)): 102.37 % of basal levels
5-HIAA concentration in prefrontal cortex, significant and stable decrease, max. (SON-117 3 mg/kg IP, from 2 h to 7 h): 72%
levels of 5-HIAA compared to the citalopram treated group (significant) (SON-117 3 mg/kg, at 3 h and 3.5 h): higher
5-HIAA (% of respective basal) MEAN (T0-T30 min): 94.78 % of respective basal
5-HIAA (% of respective basal) MEAN (T30-T1 h): 114.88 % of respective basal
5-HIAA (% of respective basal) MEAN (T1 h 30-T2 h): 102.18 % of respective basal
5-HIAA (% of respective basal) MEAN (T1 h-T1 h 30): 119.57 % of respective basal
5-HIAA (% of respective basal) MEAN (T2 h 30-T3 h): 94.10 % of respective basal
5-HIAA (% of respective basal) MEAN (T2 h-T2 h 30): 92.09 % of respective basal
5-HIAA (% of respective basal) MEAN (T3 h 30-T4 h): 94.62 % of respective basal
5-HIAA (% of respective basal) MEAN (T3 h-T3 h 30): 92.14 % of respective basal
5-HIAA (% of respective basal) MEAN (T4 h 30-T5 h): 97.11 % of respective basal
5-HIAA (% of respective basal) MEAN (T4 h-T4 h 30): 108.99 % of respective basal
5-HIAA (% of respective basal) MEAN (T5 h 30-T6 h): 90.37 % of respective basal
5-HIAA (% of respective basal) MEAN (T5 h-T5 h 30): 96.07 % of respective basal
5-HIAA (% of respective basal) MEAN (T6 h 30-T7 h): 92.61 % of respective basal
5-HIAA (% of respective basal) MEAN (T6 h-T6 h 30): 92.22 % of respective basal
5-HIAA (% of respective basal) MEAN (T-30 min-T0 (before administration)): 101.47 % of respective basal
5-HIAA (% of respective basal) MEAN (T-1 h 30-T-1 h (before administration)): 98.52 % of respective basal
5-HIAA (% of respective basal) MEAN (T-1 h-T-30 min (before administration)): 100.01 % of respective basal

Source: patent publication US20250109127A1, “METHODS OF USE OF PHENOXYPROPYLAMINE COMPOUNDS TO TREAT DEPRESSION” (Minerva Neurosciences, Inc., priority 2013, published 2025)
